Reference: US6489165B2, “Chondrocyte-like cells useful for tissue engineering and methods” (The Regents of the University of California, priority 1997, dated 2002)

What was measured:
Human dermal fibroblasts [1] = experiment: Cell morphology in high density micromass cultures by microscopy; format: cell-based
Method: (§1) Experiments were designed to examine the effects of functional hypoxia and high density culture conditions on the phenotype of dermal fibroblasts. Human dermal fibroblasts obtained from neonatal foreskin samples were cultured in high density micromass cultures. Briefly, a 10 μl drop of a cell solution at a concentration of 2.0×10^4-4.0×10^4 cells/μl was plated in a 24-well polystyrene tissue culture dish. The cultures were incubated for one hour at 37° C., 5% CO2 to allow the cells to adhere to the bottom of the wells and to enhance cell:cell interactions. Following incubation, the cells were flooded with 1 ml of medium (bringing the final concentration to 2.0×10^5 to 4.0×10^5 cells/ml) containing exogenous factors that promote differentiation along the chondrogenic pathway. Cultures were made functionally hypoxic by the addition of lactate (10-40 mM) to the culture medium. The cells were cultured for a period of 24 hours.
Human neonatal foreskin fibroblasts (HFFs) were cultured in high density micromasses (2.0×10^7 cells/ml in 10 μl) and treated with 40 mM lactic acid and 200 nM staurosporine for a period of 24 hours as previously described by Examples 1 and 2. […]

[2] = test system: Human neonatal foreskin fibroblasts (HFFs); experiment: Immunohistochemical detection of matrix proteins in micromass cultures; format: cell-based
Method: Human neonatal foreskin fibroblasts (HFFs) were cultured in high density micromasses (2.0×10^7 cells/ml in 10 μl) and treated with 40 mM lactic acid and 200 nM staurosporine for a period of 24 hours as previously described by Examples 1 and 2. After the initial culture period, the cells were maintained in chemically defined medium consisting of minimum essential medium supplemented with a 1× mixture of Insulin-Transferrin-Selenium (Life Technologies, Gibco BRL, Gaithersburg, Md.), 4.5 g/l glucose, 10 mM β-glycerophosphate, and antibiotics. Dermal fibroblasts isolated from donor tissue were similarly cultured. Additionally, dermal fibroblasts were seeded on three-dimensional polymer scaffolds composed of a non-woven polyglycolic acid (PGA) (Davis and Geck, Danbury, Conn.) mesh reinforced in a dilute solution of 100 kDa poly(L-lactic acid) (PLLA) (Polysciences, Warrington, Pa.).
(§2) The production of sulfated proteoglycans was assessed by staining with 1% Alcian blue dye (pH 1.0), while monoclonal antibodies to collagen types I (Rockland, Gilbertsville, Pa.) and II (CIICl, Developmental Studies Hybridoma Bank, Iowa City, Iowa), aggrecan (Chemicon, Temecula, Calif.), and cartilage link protein (9/30/8-A-4, DSHB) were used for immuno-histochemical detection employing the Histostain-Plus king (Zymed, South San Francisco, Calif.) with a DAB substrate for final visualization. The expression of type I collagen and transforming growth factor-β1 (TGF-β1) was detected by northern hybridization. Cell-polymer composites were analyzed by scanning electron microscopy and were embedded in glycol methacrylate, sectioned, and stained with hematoxylin and eosin.

Human dermal fibroblasts [3] = experiment: Northern hybridization of total cellular RNA with DIG-labeled probes; format: cell-based
Method: Gene Expression. […] The expression of TGF-β1 was also examined in cells cultured under identical conditions. […] Human dermal fibroblasts were cultured in monolayer without or with 40 mM lactate or in micromass cultures without or with 40 mM lactate at a density of 3.0×10^5 cell/ml for 24 hours. Total cellular RNA extracted using the Ultraspec isolation system (Biotecx Laboratories, Inc., Houston, Tex.) and fractionated by formaldehyde-agarose gel electrophoresis was hybridized with DIG-labeled probes to human chondroitin sulfate proteoglycan (aggrecan) core protein and TGF-β1. An equal amount of RNA (5 μg) was loaded in each lane and 28s ribosomal RNA served as an internal control.
Human dermal fibroblasts were cultured in monolayer without or with 40 mM lactate or in micromass cultures without or with 40 mM lactate at a density of 2.0×10^5 cell/ml for 24 hours. Total cellular RNA extracted using the Ultraspec isolation system (Biotecx Laboratories, Inc., Houston, Tex.) and fractionated by formaldehyde-agarose gel electrophoresis was hybridized with a DIG-labeled probe to human type I collagen. An equal amount of RNA (5 μg) was loaded in each lane and 28s ribosomal RNA served as an internal control.
Human dermal fibroblasts were seeded in micromass cultures at a density of 2.0×10^5 cells/ml for 24 hours in the presence of 40 mM lactate and varying concentrations of the protein kinase C inhibitors, staurosporine (0, 50, 100, 150, and 200 nM in lanes 1-5, respectively). Total cellular RNA extracted using the Ultraspec isolation system (Biotecx Laboratories, Inc., Houston, Tex.) and fractionated by formaldehyde-agarose gel electrophoresis was hybridized with DIG-labeled probes to human chondroitin sulfate proteoglycan (aggrecan) core protein and type I collagen. An equal amount RNA (5 μg) was loaded in each lane and 28s ribosomal RNA served as an internal control.
as §2

Human dermal fibroblasts [4] = experiment: Alcian blue staining of sulfated proteoglycan in monolayer or micromass cultures; format: cell-based; settings: high density micromass, 40 mM lactate, 24 hours, vs untreated and monolayer cultures, P<0.05
Method: as §1
Matrix Deposition. Treated micromass cultures synthesized highly negatively charged sulfated proteoglycan aggregates, as detected using histological and biochemical methods. […] The intensity of Alcian blue staining from guanidine-HCl extracts was measured using a microplate reader at a wavelength of 595 nm.
The expression of type I collagen and transforming growth factor-β1 (TGF-β1) was detected by northern hybridization.

Human dermal fibroblasts [5] = experiment: [35S]-sulfate incorporation (normalized to [3H]-thymidine) in micromass cultures; format: cell-based
Method: Thus, human dermal fibroblasts were seeded in monolayer or micromass cultures at a density of 2.0×10^5 cell/ml for 24 hours and left untreated or treated with 40 mM lactate to induce hypoxia. Cultures were labeled with [^3H]-thymidine at 2 μCi/ml and Na2^35SO4 at 5 μCi/ml 24 hours prior to harvest. Relative levels of [^35S]-sulfate uptake (ratio of [^35S]-sulfate to [^3H]-thymidine) were determined by liquid scintillation counting of soluble cell extracts using a dual label DPM counting program. […] Human dermal fibroblasts were seeded in high density micromass cultures at a density of 2.0×10^5 cell/ml, treated with lactate at varying concentrations (0-80 mM) for a 24 hour period, and labeled with [^35S]-sulfate.

Human dermal fibroblasts [6] = settings: 20 mM lactate; cited from earlier work
[7] = test system: fibroblast micromass cultures; experiment: Cell viability by direct microscopic observation; format: cell-based, human; settings: staurosporine alone without lactate priming, at otherwise effective doses
Description: Accordingly, practice of the invention includes treating the cells with the second agent so as to allow a PKA-dependent antagonistic pathway to predominate and to drive chondrogenic differentiation. Suitable chondrogenic differentiation agents include Bisindolylmaleimide I and calphostin C. PKA activators such as dibutyryl cAMP and adenylate cyclase activators (which results in cAMP production and PKA activity) like forskolin may also be effective. A preferred such agent is staurosporine (a protein kinase inhibitor to which PKC is most sensitive), preferably in a range of 150-200 nM.

[8] = whole mount micromass cultures, after three days
[9] = micromass 3.0×10^5 cell/ml, 40 mM lactate, 24 hours, vs untreated and monolayer
[10] = micromass 2.0×10^5 cell/ml, lactate 0-80 mM, 24 hours

Row | Compound | fibroblast outgrowth from the micromass cultures (Human dermal fibroblasts [1]; 40 mM lactate as compared to 20 mM lactate) | type I collagen immunostaining ([2]; micromass cultures) | aggrecan immunostaining [2, 8] | cartilage link protein immunostaining [2, 8] | TGF-β1 expression levels (Human dermal fibroblasts [3]; HFFs on PGA/PLLA discs, all groups) | expression of type I collagen (Human dermal fibroblasts [3]; HFFs on PGA/PLLA discs, treated vs untreated control) | type I collagen gene expression (Human dermal fibroblasts [3]; micromass 2.0×10^5 cell/ml, 40 mM lactate, 24 hours) | TGF-β1 gene expression (Human dermal fibroblasts [3]; [9]) | aggrecan core protein gene expression (Human dermal fibroblasts [3]; [9]) | intensity of Alcian blue staining (sulfated proteoglycan content), 595 nm (Human dermal fibroblasts [4]) | relative [35S]-sulfate incorporation (ratio to [3H]-thymidine) (Human dermal fibroblasts [5]; high density micromass, 40 mM lactate, 24 hours, vs corresponding cultures, P<0.05) | lactate concentration at which sulfate uptake peaks (Human dermal fibroblasts [5]; [10]) | sulfate uptake versus lactate concentration (Human dermal fibroblasts [5]; [10]) | hyaluronan synthesis (Human dermal fibroblasts [6]) | cell viability [7] | visible effect in lactate-treated micromass cultures (Human dermal fibroblasts [1]; staurosporine about 5-20 nM) | aggrecan core protein gene expression (Human dermal fibroblasts [3]; micromass, 40 mM lactate plus 150 nM staurosporine, 24 hours) | aggrecan core protein gene expression (Human dermal fibroblasts [3]; micromass, 40 mM lactate plus 200 nM staurosporine, 24 hours) | type I collagen gene expression (Human dermal fibroblasts [3]; micromass, 40 mM lactate plus staurosporine 50-200 nM (all supplemented cultures), 24 hours) | sulfate incorporation (Human dermal fibroblasts [5]; staurosporine alone without lactate priming, at otherwise effective doses)
1 | CC(O)C(=O)O (centres unmarked) [lactate] | less fibroblast outgrowth | only on the periphery | Minimal staining | Minimal staining | remained similar in all groups | greater in untreated control cultures | noticeable decrease | marked increase | marked increase | significantly greater degree of staining | Significantly greater levels | 20 to 40 mM | dose-dependent increase | increased | – | – | – | – | – | –
2 | CN[C@@H]1C[C@H]2O[C@@](C)([C@@H]1OC)n1c3ccccc3c3c4c(c5c6ccccc6n2c5c31)C(=O)NC4 [staurosporine] | – | – | – | – | – | – | – | – | – | – | – | – | – | – | deleterious effect | no visible effect | notable increase | notable increase | marked decrease | decreased levels
